ChEMBL document CHEMBL3227984, “5-Substituted uracil arabinonucleosides as potential antiviral agents” (J Med Chem, 1979)

Test system: Vaccinia virus
Assay: Antiviral activity against Vaccinia virus infected in primary rabbit kidney cells assessed as inhibition of virus-induced cytopathogenicity
Assay type: functional, Orthopoxvirus vaccinia

| Compound | ID50 |
| --- | --- |
| Cc1cn([C@@H]2O[C@H](CO)[C@@H](O)[C@@H]2O)c(=O)[nH]c1=O | 3.9 ×10⁻⁶ M |
| O=c1[nH]c(=O)n([C@@H]2O[C@H](CO)[C@@H](O)[C@@H]2O)cc1[N+](=O)[O-] | >6.9 ×10⁻⁴ M |
| N#Cc1cn([C@@H]2O[C@H](CO)[C@@H](O)[C@@H]2O)c(=O)[nH]c1=O | >3.7 ×10⁻⁴ M |
| O=c1[nH]c(=O)n([C@@H]2O[C@H](CO)[C@@H](O)[C@@H]2O)cc1O | >7.7 ×10⁻⁴ M |
| O=c1ccn([C@@H]2O[C@H](CO)[C@@H](O)[C@@H]2O)c(=O)[nH]1 [ARAURIDINE] | 8.2 ×10⁻⁴ M |
